{"source": "patent US9770421B2", "about": "“Uses for idebenone and related benzoquinones in metabolic disorders and other PPAR α/γ related diseases and conditions” (INDANIO BIOSCIENCE INC., priority 2013, dated 2017)", "key": {"PPARα": {"target": "T1, PPARα (Homo sapiens, UniProt Q07869)", "T1 sequence (Q07869 178-468)": "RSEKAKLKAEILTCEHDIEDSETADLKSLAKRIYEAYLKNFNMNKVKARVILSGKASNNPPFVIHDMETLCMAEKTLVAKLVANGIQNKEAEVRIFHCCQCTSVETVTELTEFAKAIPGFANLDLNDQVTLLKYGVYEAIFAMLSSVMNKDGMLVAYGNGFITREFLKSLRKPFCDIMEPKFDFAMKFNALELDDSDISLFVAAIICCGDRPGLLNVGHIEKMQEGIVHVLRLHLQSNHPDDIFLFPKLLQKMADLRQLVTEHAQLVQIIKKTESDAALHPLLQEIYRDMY", "test": "HEK293 cell culture luciferase reporter assay, hPPARα"}, "[1]": {"test_system": "GFP-expressing leukocytes recruited in response to CuSO4", "test": "Zebrafish inflammation assay (CuSO4)", "assay_type": "in vivo", "protocol": "Assay was performed as described in [47]. Fifteen dechorionated 55 hpf (hours post fertilization) embryos were transferred in each well of 6-well plates in 6 ml of embryo water. Idebenone was added at increasing concentrations (0.25, 0.75, 1.5, 3 and 5 μM). Embryos were incubated in the dark for 1 hr at 28 C, followed by a second 40 min incubation with copper sulfate (CuSO4) at a final concentration of 10 μM at 28 C in the dark. Embryos were then transferred to Eppendorf tubes and fixed in 4% paraformaldehyde in 1×PBS overnight at 4 C in the dark. Numbers of GFP+ cells were counted along the lateral line/neuromast clusters.\nPrevious studies have shown that PPAR agonists have anti-inflammatory properties, and can be used to treat a variety of inflammatory responses. To test if this is also true for idebenone, we used a zebrafish model of inflammation. Exposure of fish larvae to copper sulfate causes non-invasive damage to neuromast cells, which form external clusters along the lateral midline. This inflammation can be visualized via the recruitment of GFP-expressing leukocytes. As expected, this recruitment of GFP positive cells could be alleviated by addition of the known anti-inflammatory agent ibuprofen (FIG. 11)."}}, "note": "Entries after “also recorded” stand apart in the source; their conditions may differ.", "data": [{"compound": "COC1=C(OC)C(=O)C(CCCCCCCCCCO)=C(C)C1=O", "note": "[Idebenone, 2-(10-hydroxydecyl)-5,6-dimethoxy-3-methyl-2,5-cyclohexadiene-1,4-dione]", "values": [{"measurement": "EC50", "setting": "PPARα", "value": 3, "unit": "µM"}, {"measurement": "Maximum activation level versus full agonist, PPARα", "setting": "PPARα; HEK293, full agonist GW7647", "value": "significantly lower than those obtained using the full agonists"}, {"measurement": "Recruitment of GFP positive leukocytes (anti-inflammatory activity)", "setting": "[1]; 10 μM CuSO4, 55 hpf embryos", "value": "robust anti-inflammatory agent; also recorded: anti-inflammatory activity"}, {"measurement": "Concentration at which anti-inflammatory activity is detectable", "setting": "[1]; idebenone 0.25-5 μM tested", "value": "sub micromolar"}]}]}
